These results are taken from article PMC5614966, “Xanthates As Useful Probes for Testing the Active Sites of Cytochromes P450 4A11 and 2E1” (Frontiers in Pharmacology, 2017).

One series concerns the target T1, CYP4A11 (Homo sapiens, UniProt Q02928).
T1 sequence (Q02928 5-519): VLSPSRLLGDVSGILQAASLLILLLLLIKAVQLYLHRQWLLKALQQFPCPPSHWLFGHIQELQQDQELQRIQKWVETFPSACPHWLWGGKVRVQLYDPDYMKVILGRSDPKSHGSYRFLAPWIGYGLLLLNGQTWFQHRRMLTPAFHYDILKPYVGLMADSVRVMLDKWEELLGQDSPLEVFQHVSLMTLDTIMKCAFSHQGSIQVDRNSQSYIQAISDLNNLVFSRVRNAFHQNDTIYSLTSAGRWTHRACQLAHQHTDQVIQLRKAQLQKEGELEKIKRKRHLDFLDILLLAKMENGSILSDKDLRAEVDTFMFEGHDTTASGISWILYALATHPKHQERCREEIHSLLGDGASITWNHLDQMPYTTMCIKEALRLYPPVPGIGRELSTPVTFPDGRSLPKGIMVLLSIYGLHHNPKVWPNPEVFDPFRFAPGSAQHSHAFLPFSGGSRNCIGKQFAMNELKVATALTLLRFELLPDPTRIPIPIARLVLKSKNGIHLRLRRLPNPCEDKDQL
Briefly: inhibition of lauric acid omega-hydroxylation by CYP4A11 supersomes, HPLC-fluorescence, Lineweaver-Burk. It counts as biochemical.

In the next series the target is CYP2E1 (Oryctolagus cuniculus, UniProt P08682). The experiment in a line: time- and concentration-dependent (mechanism-based) inactivation of 7-EFC O-deethylation, KI with kinact […] min^-1. It is filed as biochemical. To be noted: read-out: KI_inact.
Substrate in series [1]: CCCCCCCCCCCC(=O)O
The experiment in a line: Michaelis-Menten kinetics of omega-hydroxylation by CYP4A11 supersomes (Km). It is filed as biochemical, Homo sapiens. The note with it: heme; NADPH.

CYP2E1, sequence (P08682 whole entry): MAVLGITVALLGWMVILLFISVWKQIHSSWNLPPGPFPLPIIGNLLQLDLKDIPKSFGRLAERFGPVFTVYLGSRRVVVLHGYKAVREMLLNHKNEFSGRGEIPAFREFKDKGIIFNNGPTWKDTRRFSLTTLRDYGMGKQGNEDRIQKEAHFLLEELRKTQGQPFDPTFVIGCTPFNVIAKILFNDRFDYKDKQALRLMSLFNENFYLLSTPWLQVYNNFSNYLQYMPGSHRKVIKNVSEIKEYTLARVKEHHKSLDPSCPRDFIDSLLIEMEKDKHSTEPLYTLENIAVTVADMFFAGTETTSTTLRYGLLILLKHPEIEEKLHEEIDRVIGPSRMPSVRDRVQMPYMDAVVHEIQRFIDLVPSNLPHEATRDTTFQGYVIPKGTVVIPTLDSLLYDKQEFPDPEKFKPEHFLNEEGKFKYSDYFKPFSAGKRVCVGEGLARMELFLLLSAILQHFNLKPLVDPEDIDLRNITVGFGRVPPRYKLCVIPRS

`CCCCCCCCCCCCOC(=S)S` [C12, potassium O-dodecyl carbonodithioate] registered a Ki on CYP4A11 of 9 ± 1 µM. Also, at CYP2E1, the KI (inactivation) was 312 µM.

B1: CYP4A11 (Homo sapiens) (protein)
chain: T1 sequence (Q02928 5-519)
Regarding B1, in series [1], the Michaelis constant (Km) was 11.8 µM.

In general, Ki refers to the equilibrium dissociation constant of an inhibitor or competing ligand from its target. In general, Km refers to the concentration of substrate that gives half-maximal velocity.
